Test results from patent US20090036473A1, “NOVEL QUINAZOLINONE DERIVATIVES AND THEIR MEDICAL USE” (priority 2006, published 2009).

Target: T1, human Kv72+3 channels (Homo sapiens, UniProt O43525+O43526)
T1 construct: expressed in transfected cells; host or cells: CHO K1 cells, stably expressing
Assay: patch-clamp set-up using CHO K1 cell lines stably expressing the human Kv72+3 channels
Type: cell-based
Conditions: at a concentration of 3 μM, CHO K1 cells stably expressing human Kv72+3 channels
Method: For example, at a concentration of 3 μM, Compound A4 induces an increase in current amplitude in the order 190%, which is an indication of its potent Kv72+3 activating activity.

CC(C)c1nc2ccccc2c(=O)n1NC(=O)[C@@H]1C[C@H]1c1ccccc1 (relative stereo) [Compound A4, (Trans)-2-Phenyl-cyclopropanecarboxylic acid (2-isopropyl-4-oxo-4H-quinazolin-3-yl)-amide]
increase in current amplitude: ~190%
